Results: ChEMBL document CHEMBL2157956, “Antibacterial activity of substituted dibenzo[a,g]quinolizin-7-ium derivatives” (2012)
Converted amounts (≈) assume the structure as drawn. The source made the active and inactive calls. The calls are words filed in the database; no cut-off is given here.

What was measured:
Staphylococcus aureus [1] = test: Antibacterial activity against methicillin-sensitive Staphylococcus aureus 8325-4 by CLSI broth microdilution method; format: functional
Staphylococcus aureus [2] = test: Antibacterial activity against methicillin-resistant Staphylococcus aureus ATCC 33591 by CLSI broth microdilution method; format: functional
Enterococcus faecalis [3] = test: Antibacterial activity against vancomycin-sensitive Enterococcus faecalis ATCC 19433 by CLSI broth microdilution method; format: functional
Enterococcus faecalis [4] = test: Antibacterial activity against vancomycin-resistant Enterococcus faecalis ATCC 51575 by CLSI broth microdilution method; format: functional
[5] = target: T1, Cell division protein FtsZ (Staphylococcus aureus) (UniProt P0A031); test: Induction of Staphylococcus aureus FtsZ self-polymerization assessed as increase in light scattering at 20 ug/mL by 90 deg angle light scattering assay; settings: TDE = time-dependent effect
T1 sequence (whole entry): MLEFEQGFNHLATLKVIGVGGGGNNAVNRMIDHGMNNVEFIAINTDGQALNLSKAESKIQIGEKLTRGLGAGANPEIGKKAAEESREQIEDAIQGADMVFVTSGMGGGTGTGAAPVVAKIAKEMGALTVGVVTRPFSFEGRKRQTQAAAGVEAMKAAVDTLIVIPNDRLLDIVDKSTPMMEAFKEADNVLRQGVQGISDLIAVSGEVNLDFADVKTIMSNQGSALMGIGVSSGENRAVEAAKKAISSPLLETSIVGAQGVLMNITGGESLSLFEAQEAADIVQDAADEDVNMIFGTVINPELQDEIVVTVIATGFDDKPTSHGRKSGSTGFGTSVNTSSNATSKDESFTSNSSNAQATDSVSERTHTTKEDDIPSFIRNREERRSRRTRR

[6] = target: T1, Cell division protein FtsZ (Staphylococcus aureus); test: Inhibition of Staphylococcus aureus FtsZ self-polymerization assessed as decrease in light scattering at 20 ug/mL by 90 deg angle light scattering assay; settings: TDE = time-dependent effect
[7] = target: T1, Cell division protein FtsZ (Staphylococcus aureus); test: Induction of Staphylococcus aureus FtsZ self-polymerization assessed as increase in light scattering at 20 ug/mL measured every 5 secs by 90 deg angle light scattering assay
[8] = target: T1, Cell division protein FtsZ (Staphylococcus aureus); test: Induction of Staphylococcus aureus FtsZ self-polymerization assessed as increase in light scattering at 10 ug/mL by 90 deg angle light scattering assay; settings: TDE = time-dependent effect

| SMILES | MIC (Staphylococcus aureus [1]) | MIC (Staphylococcus aureus [2]) | MIC (Enterococcus faecalis [3]) | MIC (Enterococcus faecalis [4]) | Activity [5] | inhibition [6] | Activity [7] | Activity [8] |
| --- | --- | --- | --- | --- | --- | --- | --- | --- |
| CC(=O)OS(=O)(=O)[O-].COc1cc2cc[n+]3c(C)c4cc(OC)c(OC)c(-c5ccc(-c6ccccc6)cc5)c4cc3c2cc1OC | 1 mg/L | 4 mg/L | 4 mg/L | 32 mg/L | tde | tde |  |  |
| CC(=O)OS(=O)(=O)[O-].COc1cc2cc3c4cc(-c5ccc(C(C)(C)C)cc5)c(OC)c(OC)c4cc[n+]3c(C)c2cc1OC | 1 mg/L | 2 mg/L | 4 mg/L | 4 mg/L |  |  |  |  |
| COc1cc2cc[n+]3cc4cc(OC)c(OC)c(-c5ccc(-c6ccccc6)cc5)c4cc3c2cc1OC.[Cl-] | 2 mg/L | 4 mg/L | 8 mg/L | 32 mg/L |  |  |  |  |
| CC(=O)OS(=O)(=O)[O-].COc1cc2cc3c4cc(-c5ccccc5)c(OC)c(OC)c4cc[n+]3c(C)c2cc1OC | 2 mg/L | 8 mg/L | 8 mg/L | 16 mg/L |  |  |  |  |
| COc1cc2c[n+]3ccc4c(OC)c(OC)ccc4c3cc2c(-c2ccc(-c3ccccc3)cc2)c1OC.[Cl-] | 2 mg/L | 8 mg/L | 8 mg/L | 16 mg/L |  |  |  |  |
| CC(=O)OS(=O)(=O)[O-].COc1cc2cc3c4cc(-c5cccc6ccccc56)c(OC)c(OC)c4cc[n+]3c(C)c2cc1OC | 1 mg/L | 2 mg/L | 4 mg/L | 8 mg/L |  |  |  |  |
| CCC[C@@H]1C[C@@H](C(=O)N[C@@H]([C@H]2O[C@H](SC)[C@H](O)[C@@H](O)[C@H]2O)[C@H](C)Cl)N(C)C1 [CLINDAMYCIN] | 0.03 mg/L (≈ 0.0706 µM) | > 64 mg/L | 2 mg/L (≈ 4.71 µM) | > 64 mg/L |  |  |  |  |
| CC(=O)OS(=O)(=O)[O-].COc1cc2cc3c4cc(-c5ccc(-c6ccccc6)cc5)c(OC)c(OC)c4cc[n+]3c(C)c2cc1OC | 1 mg/L | 2 mg/L | 4 mg/L | 8 mg/L |  |  |  |  |
| CN(C)[C@@H]1C(O)=C(C(N)=O)C(=O)[C@@]2(O)C(O)=C3C(=O)c4c(O)cccc4[C@@](C)(O)[C@H]3C[C@@H]12 [TETRACYCLINE] | 0.06 mg/L (≈ 0.135 µM) | 64 mg/L (≈ 144 µM) | 0.5 mg/L (≈ 1.13 µM) | > 64 mg/L |  |  |  |  |
| COc1cc2cc3c4cc(-c5ccc(C)cc5)c(OC)cc4cc[n+]3cc2cc1OC.[Cl-] | 2 mg/L | 8 mg/L | 16 mg/L | > 64 mg/L |  |  |  |  |
| COc1cc2cc3c4cc(-c5ccc(-c6ccccc6)cc5)c(OC)c(OC)c4cc[n+]3cc2cc1OC.[Cl-] | 2 mg/L | 2 mg/L | 8 mg/L | 4 mg/L |  |  |  |  |
| CC(=O)OS(=O)(=O)[O-].COc1cc2cc3c4cc(-c5ccccc5)c(OC)cc4cc[n+]3c(C)c2cc1OC | 8 mg/L | > 64 mg/L | > 64 mg/L | > 64 mg/L |  |  |  |  |
| CC(=O)OS(=O)(=O)[O-].COc1cc2cc3c4cc(-c5ccc(C)cc5)c(OC)cc4cc[n+]3c(C)c2cc1OC | 4 mg/L | 8 mg/L | 8 mg/L | > 64 mg/L |  |  |  |  |
| COc1cc2cc3c4cc(-c5ccccc5)c(OC)c(OC)c4cc[n+]3cc2cc1OC.[Cl-] | 4 mg/L | 8 mg/L | 16 mg/L | 32 mg/L |  |  |  |  |
| COc1ccc2cc3[n+](cc2c1OC)CCc1cc2c(cc1-3)OCO2 [BERBERINE] | > 64 mg/L | > 64 mg/L | > 64 mg/L | > 64 mg/L |  |  |  |  |
| COc1cc2cc3c4cc(-c5cccc6ccccc56)c(OC)c(OC)c4cc[n+]3cc2cc1OC.[Cl-] | 4 mg/L | 2 mg/L | 8 mg/L | 8 mg/L |  |  |  |  |
| Cc1onc(-c2ccccc2)c1C(=O)N[C@@H]1C(=O)N2[C@@H]1SC(C)(C)[C@@H]2C(=O)O [OXACILLIN] | 0.06 mg/L (≈ 0.149 µM) | > 64 mg/L | 8 mg/L (≈ 19.9 µM) | > 64 mg/L |  |  | inactive |  |
| COc1cc2cc3c4cc(-c5ccccc5)c(OC)cc4cc[n+]3cc2cc1OC.[Cl-] | 8 mg/L | 32 mg/L | 32 mg/L | 64 mg/L |  |  |  |  |
| CC[C@H]1OC(=O)[C@H](C)[C@@H](O[C@H]2C[C@@](C)(OC)[C@@H](O)[C@H](C)O2)[C@H](C)[C@@H](O[C@@H]2O[C@H](C)C[C@H](N(C)C)[C@H]2O)[C@](C)(O)C[C@@H](C)C(=O)[C@H](C)[C@@H](O)[C@]1(C)O [ERYTHROMYCIN] | 0.13 mg/L (≈ 0.177 µM) | > 64 mg/L | 1 mg/L (≈ 1.36 µM) | > 64 mg/L |  |  |  |  |
| CN[C@H](CC(C)C)C(=O)N[C@H]1C(=O)N[C@@H](CC(N)=O)C(=O)N[C@H]2C(=O)N[C@H]3C(=O)N[C@H](C(=O)N[C@H](C(=O)O)c4cc(O)cc(O)c4-c4cc3ccc4O)[C@H](O)c3ccc(c(Cl)c3)Oc3cc2cc(c3O[C@@H]2O[C@H](CO)[C@@H](O)[C@H](O)[C@H]2O[C@H]2C[C@](C)(N)[C@H](O)[C@H](C)O2)Oc2ccc(cc2Cl)[C@H]1O [VANCOMYCIN] |  |  | 1 mg/L (≈ 0.69 µM) | > 64 mg/L |  |  |  |  |
| CC(=O)OS(=O)(=O)[O-].COc1cc2c(C)[n+]3ccc4c(OC)c(OC)ccc4c3cc2c(-c2ccc(-c3ccccc3)cc2)c1OC | 1 mg/L | 4 mg/L | 16 mg/L | 16 mg/L |  |  |  |  |
| CC(C)C(=O)OS(=O)(=O)[O-].COc1cc2cc3c4cc(-c5ccc(-c6ccccc6)cc5)c(OC)c(OC)c4cc[n+]3c(C(C)C)c2cc1OC | 0.5 mg/L | 0.5 mg/L | 2 mg/L | 2 mg/L | tde |  |  | tde |
| COc1cc2cc3c4cc(-c5ccc(C(C)(C)C)cc5)c(OC)c(OC)c4cc[n+]3cc2cc1OC.[Cl-] | 4 mg/L | 4 mg/L | 4 mg/L | 8 mg/L |  |  |  |  |
